In PubChem BioAssay (NCI) one finds GI50 and TGI data, which are given here for twelve compounds.

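All cell lines were grown in 96-well plates and treated with compound for 48 hours. GI50 marks 50% less growth. TGI marks complete inhibition of growth.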

Some test systems named below: A549 NSCLC; M14 melanoma; MDA-MB-435; NCI-H522 lung; NCI/ADR-RES ovarian; OVCAR-4 ovarian; SF-539 CNS; SW-620 colon; T-47D breast; CCRF-CEM leukemia.
What all share (test): inhibition of tumour cell growth, NCI panel, 48 h

For `COc1nc(C)cc2c(=O)n(-c3ccccc3)n(CCCN3CCN(c4ccc(Cl)cc4)CC3)c(=O)c12`, the GI50 in the test with A549 NSCLC was 21.2 µM; in the test with M14 melanoma it was 46.6 µM; in the test with MDA-MB-435, above 50 µM; with NCI-H522 lung, 28.6 µM; in the test on NCI/ADR-RES ovarian, above 50 µM; with OVCAR-4 ovarian, 17.6 µM. Moreover, the GI50 in the test on SF-539 CNS is above 50 µM; in the test on SW-620 colon, 43.8 µM; with T-47D breast, above 50 µM. In addition, the TGI with A549 NSCLC, in the test with M14 melanoma, with MDA-MB-435, in the test with NCI-H522 lung, with NCI/ADR-RES ovarian and in the test on OVCAR-4 ovarian was above 50 µM each time. Besides, the TGI in the test with SF-539 CNS, in the test on SW-620 colon and with T-47D breast was above 50 µM throughout.
As for `CCN(CC)CCCCCCCNc1c2ccc(Cl)cc2nc2ccc(OC)cc12`, the GI50 is 0.664 µM in the test on A549 NSCLC; 0.619 µM in the test with CCRF-CEM leukemia; 1.34 µM in the test with M14 melanoma; 1.43 µM with MDA-MB-435; 1.2 µM in the test on NCI-H522 lung; 1.03 µM in the test with NCI/ADR-RES ovarian. In addition, the GI50 in the test with OVCAR-4 ovarian was 0.913 µM; in the test with SW-620 colon it was 0.376 µM; in the test on T-47D breast it was 2.24 µM. For the same compound, the TGI is 2.69 µM with A549 NSCLC; 3.89 µM with CCRF-CEM leukemia; 2.77 µM in the test with M14 melanoma; 3.16 µM in the test on MDA-MB-435; 2.83 µM in the test on NCI-H522 lung; 4.07 µM with NCI/ADR-RES ovarian. The TGI in the test with OVCAR-4 ovarian came out at 2.9 µM; in the test with SW-620 colon, 1.64 µM; in the test on T-47D breast, 4.97 µM.
Take `OCCCCC#Cc1ccccc1C#Cc1ccccc1C(F)(F)F`: the GI50 was 4.36 µM with A549 NSCLC; 3.91 µM in the test on CCRF-CEM leukemia; 0.847 µM in the test on MDA-MB-435; 9.13 µM in the test with NCI-H522 lung; 4.2 µM with NCI/ADR-RES ovarian; 18.4 µM in the test with OVCAR-4 ovarian. Moreover, the values for the GI50 with SF-539 CNS, in the test with SW-620 colon and with T-47D breast were 12 µM, 4.35 µM and 19.8 µM, respectively. Moreover, the TGI was 16.6 µM in the test with A549 NSCLC; 17.2 µM in the test on CCRF-CEM leukemia; 2.75 µM in the test on MDA-MB-435; 22.7 µM in the test on NCI-H522 lung; 16.2 µM in the test on NCI/ADR-RES ovarian; 36.4 µM with OVCAR-4 ovarian. For the same compound, the TGI worked out at 25.2 µM in the test with SF-539 CNS, 16.4 µM with SW-620 colon and 47.2 µM with T-47D breast.
Regarding `O=C1c2ccccc2-c2c1c1ccccc1c(=O)n2CCNCCNCCn1c2c(c3ccccc3c1=O)C(=O)c1ccccc1-2`, the GI50 in the test on A549 NSCLC is 0.231 µM; with M14 melanoma it was 2.58 µM; in the test with MDA-MB-435, 0.97 µM; with NCI-H522 lung, 2.28 µM; in the test with NCI/ADR-RES ovarian it was 1.11 µM; with OVCAR-4 ovarian, 1.43 µM. For the same compound, the GI50 is 0.542 µM in the test with SF-539 CNS, 0.0296 µM with SW-620 colon and 18.1 µM in the test with T-47D breast. Besides, the TGI in the test on A549 NSCLC is above 38.2 µM; in the test with M14 melanoma, 33.4 µM; in the test on MDA-MB-435, 19.6 µM; with NCI/ADR-RES ovarian, 11.1 µM; in the test with OVCAR-4 ovarian, 14.9 µM; in the test with SF-539 CNS, 12.3 µM. In addition, the TGI with SW-620 colon stood at 1.93 µM; in the test with T-47D breast it was 41.5 µM.
Turning to `CCOC(=O)Oc1c(OC)cc(C(=O)O[C@@H]2C[C@@H]3CN4CCc5c([nH]c6cc(OC)ccc56)[C@H]4C[C@@H]3[C@H](C(=O)OC)[C@H]2OC)cc1OC`, the GI50 is 3.41 µM with A549 NSCLC; 4.44 µM in the test on M14 melanoma; 8.33 µM in the test on MDA-MB-435; 5.18 µM with NCI-H522 lung; 4.37 µM in the test on NCI/ADR-RES ovarian; 4.72 µM in the test with OVCAR-4 ovarian. For the same compound, the results for the GI50 in the test on SF-539 CNS, in the test on SW-620 colon and in the test on T-47D breast were 4.18 µM, 3.67 µM and 2.97 µM, respectively. Also, the TGI in the test with A549 NSCLC was 14.2 µM; in the test with M14 melanoma it was 18.9 µM; in the test on MDA-MB-435, 23.9 µM; in the test with NCI-H522 lung it was 18.7 µM; in the test on NCI/ADR-RES ovarian, 23.3 µM; with OVCAR-4 ovarian it was 19.8 µM. Also, the results for the TGI in the test with SF-539 CNS, in the test with SW-620 colon and in the test on T-47D breast were 14.8 µM, 19.4 µM and 20.1 µM, respectively.
In the case of `COC(=O)/C(=C\c1c(C)[nH]c2ccccc12)S(=O)(=O)c1ccccc1`, the GI50 in the test on A549 NSCLC is 4.87 µM; in the test with M14 melanoma it was 4.4 µM; in the test with MDA-MB-435, 2.86 µM; in the test on NCI-H522 lung, 3.19 µM; in the test on NCI/ADR-RES ovarian it was 4.19 µM; in the test on OVCAR-4 ovarian it was 5.71 µM. Besides, the GI50 is 3.4 µM in the test on SF-539 CNS, 5.15 µM in the test with SW-620 colon and 3.21 µM with T-47D breast. The TGI in the test with A549 NSCLC was 64 µM; in the test with M14 melanoma, 20 µM; in the test on MDA-MB-435 it was 13.8 µM; in the test with NCI-H522 lung, 14.4 µM; with NCI/ADR-RES ovarian, 67.7 µM; in the test with OVCAR-4 ovarian, above 100 µM. The TGI in the test on SF-539 CNS turned out to be 11.5 µM; in the test with SW-620 colon, 21.9 µM; in the test on T-47D breast it was 16.6 µM.
Regarding `C/C=C(\C)C(=O)O[C@H]1C=CC(=O)O[C@H]1CNC(=O)[C@H](C)O`, the GI50 with A549 NSCLC is 31.1 µM; in the test with M14 melanoma, 18.6 µM; in the test on MDA-MB-435, 20.1 µM; with NCI-H522 lung, 11.6 µM; with NCI/ADR-RES ovarian, 26.2 µM; in the test on OVCAR-4 ovarian it was 17.3 µM. The GI50 was 19.4 µM with SF-539 CNS, 14.6 µM in the test on SW-620 colon and 20 µM with T-47D breast. For the same compound, the TGI with A549 NSCLC is above 100 µM; with M14 melanoma, 41 µM; in the test with MDA-MB-435, 44.7 µM; in the test with NCI-H522 lung, 31 µM; in the test on NCI/ADR-RES ovarian, 81.4 µM; in the test with OVCAR-4 ovarian, 36.1 µM. Besides, the TGI turned out to be 35.4 µM in the test on SF-539 CNS, 28.6 µM with SW-620 colon and 73.9 µM in the test on T-47D breast.
As for `C[C@]12CC[C@@H]3c4ccc(O)cc4CC[C@H]3[C@@H]1CC[C@@H]2NS(=O)(=O)Cc1ccc(Cl)cc1`, the GI50 in the test on A549 NSCLC is 2.98 µM; with CCRF-CEM leukemia it was 2.63 µM; in the test with M14 melanoma, 2.49 µM; in the test with MDA-MB-435, 2.78 µM; with NCI/ADR-RES ovarian, 2.69 µM; in the test with OVCAR-4 ovarian it was 2.69 µM. Besides, the values for the GI50 with SF-539 CNS, in the test with SW-620 colon and in the test with T-47D breast were 1.88 µM, 3.5 µM and 2.85 µM, respectively. The TGI was 11 µM in the test on A549 NSCLC; above 100 µM in the test with CCRF-CEM leukemia; 6.25 µM in the test with M14 melanoma; 9.03 µM in the test with MDA-MB-435; 10.7 µM in the test with NCI/ADR-RES ovarian; 13.6 µM with OVCAR-4 ovarian. In addition, the TGI was found to be 4.39 µM in the test on SF-539 CNS, 17.3 µM with SW-620 colon and 8.11 µM in the test with T-47D breast.
Consider `O=C(Nc1ccc(Cl)cc1)c1cc2ccccc2cc1O`, for which the GI50 was 4.54 µM with A549 NSCLC; 4.65 µM in the test on CCRF-CEM leukemia; 3.84 µM in the test with MDA-MB-435; 1.25 µM in the test with NCI-H522 lung; 2.81 µM in the test on NCI/ADR-RES ovarian; 4.41 µM in the test on OVCAR-4 ovarian. The GI50 was 4.01 µM with SF-539 CNS, 3.62 µM in the test on SW-620 colon and 1.11 µM in the test with T-47D breast. For the same compound, the TGI in the test with A549 NSCLC was above 100 µM; in the test on CCRF-CEM leukemia, above 100 µM; in the test on MDA-MB-435, above 100 µM; in the test with NCI-H522 lung, 6.88 µM; in the test with NCI/ADR-RES ovarian, above 100 µM; in the test on OVCAR-4 ovarian, above 100 µM. Moreover, the TGI is above 100 µM in the test with SF-539 CNS, above 100 µM with SW-620 colon and 9.49 µM in the test on T-47D breast.
For the compound `COc1ccc2[nH]c(Cl)c(/C=C3/C(=O)N(C)c4ccccc43)c2c1`, the GI50 in the test with A549 NSCLC is above 100 µM; in the test with CCRF-CEM leukemia, 43.6 µM; with M14 melanoma it was above 100 µM; in the test with MDA-MB-435, above 100 µM; with NCI-H522 lung, above 100 µM; with NCI/ADR-RES ovarian it was above 100 µM. For the same compound, the values for the GI50 with OVCAR-4 ovarian, with SW-620 colon and in the test on T-47D breast were above 100 µM, 96.6 µM and 13.1 µM, respectively. The TGI with A549 NSCLC, in the test on CCRF-CEM leukemia, in the test on M14 melanoma, in the test with MDA-MB-435, in the test with NCI-H522 lung and in the test on NCI/ADR-RES ovarian was above 100 µM each time. Besides, the TGI with OVCAR-4 ovarian is above 100 µM; with SW-620 colon, above 100 µM; with T-47D breast it was 63.4 µM.
In the case of `S=C(N/N=C/c1ccccn1)Nc1ccccn1`, the GI50 in the test on A549 NSCLC is 2.34 µM; in the test with CCRF-CEM leukemia, 0.358 µM; in the test with MDA-MB-435 it was 3.86 µM; in the test on NCI-H522 lung, 0.241 µM; in the test on NCI/ADR-RES ovarian, 1.74 µM; in the test with OVCAR-4 ovarian, 0.477 µM. Besides, the GI50 in the test with SF-539 CNS was 1.81 µM; in the test on SW-620 colon, 1.7 µM; with T-47D breast it was 1.93 µM. Further, the TGI in the test with A549 NSCLC was 76.6 µM; in the test with CCRF-CEM leukemia it was 17.5 µM; in the test with MDA-MB-435, above 100 µM; with NCI-H522 lung, 0.842 µM; in the test with NCI/ADR-RES ovarian, above 100 µM; in the test with OVCAR-4 ovarian it was 62.2 µM. In addition, the TGI is 9.02 µM with SF-539 CNS, above 100 µM in the test on SW-620 colon and 90.7 µM in the test on T-47D breast.
As to `CCSc1nc(N=Cc2cccs2)c2cn[nH]c2n1`, the GI50 is 29.2 µM with A549 NSCLC; 14.8 µM in the test on M14 melanoma; 10.8 µM in the test with MDA-MB-435; 48.5 µM with NCI-H522 lung; 15.7 µM in the test with NCI/ADR-RES ovarian; 17.8 µM in the test on OVCAR-4 ovarian. In addition, the figures for the GI50 with SF-539 CNS, in the test on SW-620 colon and in the test on T-47D breast were 25.3 µM, 19.7 µM and 23.6 µM, respectively. For the same compound, the TGI was above 100 µM in the test on A549 NSCLC; 28 µM in the test with M14 melanoma; 57.2 µM in the test with MDA-MB-435; above 100 µM with NCI-H522 lung; 61.4 µM with NCI/ADR-RES ovarian; 67.4 µM in the test with OVCAR-4 ovarian. Also, the TGI in the test on SF-539 CNS is above 100 µM; in the test with SW-620 colon, above 100 µM; in the test on T-47D breast it was 95 µM.
